From the CheMixHub viscosity set
± gives the uncertainty stated by the source.

Experiment: xn = mol fraction of the nth substance listed

CCCC(C)=O + CCCCN(CCCC)CCCC
viscosity [mPa·s], 101 kPa
Conditions	298.15 K	303.15 K	308.15 K
x2 = 0.0499	0.49 ± 0.016	0.465 ± 0.016	0.436 ± 0.016
x2 = 0.1	0.521 ± 0.017	0.49 ± 0.016	0.462 ± 0.016
x2 = 0.1499	0.554 ± 0.017	0.521 ± 0.017	0.491 ± 0.016
x2 = 0.2	0.588 ± 0.017	0.551 ± 0.017	0.519 ± 0.017
x2 = 0.2498	0.624 ± 0.017	0.584 ± 0.017	0.547 ± 0.017
x2 = 0.3	0.66 ± 0.017	0.614 ± 0.017	0.575 ± 0.017
x2 = 0.3999	0.735 ± 0.017	0.681 ± 0.017	0.636 ± 0.017
x2 = 0.4997	0.81 ± 0.017	0.75 ± 0.017	0.698 ± 0.017
x2 = 0.5997	0.889 ± 0.017	0.821 ± 0.017	0.764 ± 0.017
x2 = 0.7002	0.974 ± 0.018	0.898 ± 0.017	0.832 ± 0.017
x2 = 0.7997	1.065 ± 0.018	0.977 ± 0.018	0.902 ± 0.017
x2 = 0.8463	1.108 ± 0.018	1.02 ± 0.018	0.936 ± 0.018
x2 = 0.899	1.165 ± 0.018	1.064 ± 0.018	0.979 ± 0.018
x2 = 0.956	1.227 ± 0.018	1.118 ± 0.018	1.025 ± 0.018

ClC(Cl)(Cl)Cl + CC#N
viscosity [mPa·s], 101 kPa
Conditions	293.15 K	298.15 K	303.15 K	313.15 K	323.15 K
x2 = 0.007	0.954 ± 0.025	0.883 ± 0.023	0.813 ± 0.021	0.74 ± 0.019	0.638 ± 0.017
x2 = 0.026	0.948 ± 0.025	0.855 ± 0.022	0.798 ± 0.021	0.724 ± 0.019	0.612 ± 0.016
x2 = 0.084	0.906 ± 0.024	0.862 ± 0.023	0.831 ± 0.022	0.736 ± 0.019	0.659 ± 0.017

CCN(CC)CC + CCc1ccccc1
303.15 K, 101 kPa
Conditions	viscosity [mPa·s]
x1 = 0.01075	0.5914 ± 0.0052
x1 = 0.02054	0.5873 ± 0.0052
x1 = 0.03021	0.5822 ± 0.0051
x1 = 0.04405	0.5755 ± 0.0051
x1 = 0.05034	0.5715 ± 0.005
x1 = 0.06324	0.5666 ± 0.0051
x1 = 0.07098	0.5623 ± 0.005
x1 = 0.0794	0.5569 ± 0.005
x1 = 0.09408	0.5505 ± 0.0048
x1 = 0.1003	0.5476 ± 0.0048

CCCC(C)=O + CCC(C)=O
viscosity [mPa·s], 101 kPa
Conditions	x2 = 0.2	x2 = 0.4	x2 = 0.6	x2 = 0.8
293.15 K	0.483 ± 0.005	0.461 ± 0.005	0.439 ± 0.005	0.418 ± 0.005
313.15 K	0.388 ± 0.004	0.372 ± 0.004	0.357 ± 0.004	0.341 ± 0.004

ClC(Cl)(Cl)Cl + Cc1cccc(C)c1
298.15 K, 101 kPa
Conditions	viscosity [mPa·s]
x1 = 0.1974	0.609 ± 0.009
x1 = 0.3803	0.665 ± 0.01
x1 = 0.4687	0.716 ± 0.011
x1 = 0.5267	0.751 ± 0.012
x1 = 0.5964	0.792 ± 0.012
x1 = 0.7155	0.851 ± 0.013
x1 = 0.8693	0.894 ± 0.014
x1 = 0.9105	0.902 ± 0.014

ClC(Cl)(Cl)Cl + CCCO
101 kPa
Conditions	viscosity [mPa·s]
298.15 K, x2 = 0.0685	0.89 ± 0.009
298.15 K, x2 = 0.1	0.903 ± 0.024
298.15 K, x2 = 0.1294	0.909 ± 0.009
298.15 K, x2 = 0.2085	0.962 ± 0.009
298.15 K, x2 = 0.22	0.946 ± 0.025
298.15 K, x2 = 0.2859	1.02 ± 0.01
298.15 K, x2 = 0.31	1.012 ± 0.027
298.15 K, x2 = 0.39	1.089 ± 0.029
298.15 K, x2 = 0.3964	1.113 ± 0.011
298.15 K, x2 = 0.5849	1.317 ± 0.012
298.15 K, x2 = 0.63	1.409 ± 0.037
298.15 K, x2 = 0.72	1.554 ± 0.041
298.15 K, x2 = 0.79	1.667 ± 0.044
298.15 K, x2 = 0.8446	1.724 ± 0.016
298.15 K, x2 = 0.8705	1.769 ± 0.016
298.15 K, x2 = 0.8955	1.808 ± 0.017
298.15 K, x2 = 0.91	1.88 ± 0.049
298.15 K, x2 = 0.9511	1.877 ± 0.017
303.15 K, x2 = 0.0615	0.8319 ± 0.0067
303.15 K, x2 = 0.0651	0.8324 ± 0.0067
303.15 K, x2 = 0.1059	0.8333 ± 0.0067
303.15 K, x2 = 0.2377	0.8752 ± 0.007
303.15 K, x2 = 0.3576	0.9546 ± 0.0076
303.15 K, x2 = 0.4503	1.041 ± 0.0083
303.15 K, x2 = 0.5592	1.163 ± 0.0091
303.15 K, x2 = 0.6985	1.339 ± 0.01
303.15 K, x2 = 0.7899	1.461 ± 0.011
303.15 K, x2 = 0.8376	1.524 ± 0.012
303.15 K, x2 = 0.8976	1.603 ± 0.012
303.15 K, x2 = 0.9626	1.682 ± 0.013
303.15 K, x2 = 0.9633	1.684 ± 0.013
308.15 K, x2 = 0.0685	0.775 ± 0.008
308.15 K, x2 = 0.1294	0.785 ± 0.008
308.15 K, x2 = 0.2085	0.817 ± 0.008
308.15 K, x2 = 0.2859	0.849 ± 0.008
308.15 K, x2 = 0.3964	0.905 ± 0.009
308.15 K, x2 = 0.5849	1.071 ± 0.01
308.15 K, x2 = 0.8446	1.383 ± 0.013
308.15 K, x2 = 0.8705	1.402 ± 0.013
308.15 K, x2 = 0.8955	1.435 ± 0.014
308.15 K, x2 = 0.9511	1.487 ± 0.014
318.15 K, x2 = 0.0685	0.676 ± 0.007
318.15 K, x2 = 0.1294	0.686 ± 0.007
318.15 K, x2 = 0.2085	0.702 ± 0.007
318.15 K, x2 = 0.2859	0.735 ± 0.007
318.15 K, x2 = 0.3964	0.772 ± 0.008
318.15 K, x2 = 0.5849	0.882 ± 0.009
318.15 K, x2 = 0.8446	1.109 ± 0.011
318.15 K, x2 = 0.8705	1.128 ± 0.011
318.15 K, x2 = 0.8955	1.152 ± 0.011
318.15 K, x2 = 0.9511	1.196 ± 0.011

ClC(Cl)(Cl)Cl + O=[N+]([O-])c1ccccc1
101 kPa
Conditions	viscosity [mPa·s]
298.15 K, x1 = 0.17	1.613 ± 0.11
298.15 K, x1 = 0.35	1.411 ± 0.1
298.15 K, x1 = 0.55	1.224 ± 0.089
298.15 K, x1 = 0.76	1.099 ± 0.081
303.15 K, x2 = 0.0951	0.8421 ± 0.0061
303.15 K, x2 = 0.1913	0.8672 ± 0.0063
303.15 K, x2 = 0.2891	0.8934 ± 0.0065
303.15 K, x2 = 0.3875	0.9219 ± 0.0067
303.15 K, x2 = 0.4865	0.9908 ± 0.0072
303.15 K, x2 = 0.5871	1.059 ± 0.0076
303.15 K, x2 = 0.6886	1.159 ± 0.0083
303.15 K, x2 = 0.7915	1.25 ± 0.009
303.15 K, x2 = 0.8947	1.436 ± 0.01

CCN(CC)CC + Cc1ccccc1
303.15 K, 101 kPa
Conditions	viscosity [mPa·s]
x1 = 0.01196	0.5137 ± 0.0046
x1 = 0.02231	0.5093 ± 0.0046
x1 = 0.03105	0.5049 ± 0.0047
x1 = 0.04186	0.4993 ± 0.0045
x1 = 0.04881	0.4963 ± 0.0045
x1 = 0.0617	0.4911 ± 0.0045
x1 = 0.0685	0.4859 ± 0.0045
x1 = 0.07915	0.4823 ± 0.0042
x1 = 0.09159	0.4786 ± 0.0042
x1 = 0.1002	0.4755 ± 0.0042

CCOC(=O)c1ccccc1O + CCCCCOC(C)=O
Conditions	viscosity [mPa·s]
298.15 K, 101 kPa, x2 = 0.5	1.045 ± 0.01

CCCOC(C)=O + ClC(Cl)(Cl)Cl
101.33 kPa
Conditions	viscosity [mPa·s]
303.15 K, x2 = 0.0422	0.526 ± 0.005
303.15 K, x2 = 0.1298	0.547 ± 0.005
303.15 K, x2 = 0.2541	0.576 ± 0.005
303.15 K, x2 = 0.3334	0.598 ± 0.005
303.15 K, x2 = 0.488	0.639 ± 0.005
303.15 K, x2 = 0.5271	0.657 ± 0.005
303.15 K, x2 = 0.6005	0.676 ± 0.006
303.15 K, x2 = 0.7049	0.716 ± 0.006
303.15 K, x2 = 0.8748	0.784 ± 0.006
303.15 K, x2 = 0.9403	0.815 ± 0.007
313.15 K, x2 = 0.2073	0.494 ± 0.004
313.15 K, x2 = 0.4055	0.541 ± 0.005
313.15 K, x2 = 0.5078	0.568 ± 0.005
313.15 K, x2 = 0.601	0.593 ± 0.005
313.15 K, x2 = 0.802	0.661 ± 0.005
